This is an account of results in patent US20230066011A1, “PYRROLOPYRIMIDINE DERIVATIVE, AND PHARMACEUTICAL COMPOSITION FOR PREVENTING OR TREATING PROTEIN KINASE-RELATED DISEASE COMPRISING SAME AS ACTIVE INGREDIENT” (VORONOI CO., LTD., priority 2019, published 2023).

Broadly, the GI50 is the concentration that inhibits growth by half. Lower therefore signals greater sensitivity of the cells. The IC50 is the point on the concentration scale where inhibition reaches its midpoint. Low values mean higher potency, high ones lower potency.

Where only a bound is given, the exact number is not on record here.

For assay [1], the system named is MDA-MB-231 cell line. The assay can be described thus: Inhibition of proliferation of MDA-MB-231 cancer cells (Cell Titer-Glo). The assay is classed as cell-based. Particulars: Homo sapiens, 72 hours. The essentials: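 Growth inhibition over 72 h: cells seeded at 2,000/well and dosed at eleven 3-fold-spaced final concentrations from 10.000000 μM. Read-out is ATP luminescence (Cell Titer-Glo, 10 min, room temperature), with GI50 derived from it.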
On the technique in general: In ATP-based viability assays light output follows the ATP content of the culture.

In assay [2] the target is LRRK2 (G2019S) (Homo sapiens, UniProt Q5S007, G2019S). The assay can be described thus: LRRK2 G2019S enzyme inhibition, ADP-Glo kinase assay. The assay is classed as biochemical. Further details: purchased SignalChem L10-12GG. Particulars: ATP 25 μM. The essentials:
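IC50 derived from luminescent ADP-Glo readout against untreated solvent control, twelve final compound concentrations from 50 μM downward. Reaction: recombinant human LRRK2 G2019S enzyme, 25 μM ATP, substrate, pH 7.4 Tris buffer with MgCl2/BSA/DTT, 25° C. for 2 hours.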

The subject of assay [3] is human DYRK1A and tau. The assay can be described thus: Inhibition of tau phosphorylation, ClariCELL Kinase Cell-Based Assay, HEK 293 cells expressing human DYRK1A and tau. As to conditions: for inhibition at 1 µM: HEK293, read-out: % inhibition at 1 uM, tau phosphorylation, compound 1 uM; for inhibition at 0.25 µM / inhibition at 0.5 µM: HEK293, tau phosphorylation; for inhibition at 0.25 µM: compound 0.25 uM; for inhibition at 0.5 µM: compound 0.5 uM. In a few lines:
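Cell-based service assay: HEK 293 cells transiently expressing human DYRK1A and tau were treated with compound and lysed. Released tau was plate-captured and its phosphorylation quantified by ELISA with a phospho-tau-specific antibody.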

Assay [4] concerns IL-6. The assay can be described thus: Inhibition of LPS-induced IL-6 secretion of THP-1 monocytes (ELISA). The format is cell-based, human. Particulars: Homo sapiens, THP-1; compound 0.5 μM, LPS 500 ng/mL, 24 hours; read-out: THP1/IL6 (% inhib). The essentials: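 THP-1 monocytes grown 16 h at 37 °C, pretreated 1 h with compound at final 0.5 μM, then stimulated with LPS at final 500 ng/mL for 24 h. IL-6 and TNF-α in culture supernatant measured by ELISA (OD 450 nm).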

The subject of assay [5] is TNF-α. The assay can be described thus: Inhibition of LPS-induced TNF-α secretion of THP-1 monocytes (ELISA). The format is cell-based, human. As to conditions: Homo sapiens, THP-1; compound 0.5 μM, LPS 500 ng/mL, 24 hours; read-out: THP-1/TNF-α (% inhib). How it is done:
To evaluate an inhibitory effect on cytokine secretion of monocytes, THP-1 cells (ATCC, #TIB-202) as a human-derived monocyte line were cultured in an RPMI-1640 (Hyclone, SH30027.01) medium supplemented with 10% fetal bovine serum (Hyclone, SH30084.03), 1% penicillin streptomycin (Welgene, LS202-02), and 50 μM 2-mercaptoethanol (Gibco, #21985023). In the test, the cells were seeded in a 48-well plate (SPL, #30048) at a density of 1.5 to 2×10^5 cells/250 μL per well, and cultured at 37° C. for 16 hours in a 5% CO2 incubator. Thereafter, the compound was diluted with DMSO so that the final concentration of the compound was 0.5 μM. Then, the cells were treated with the diluted compound before an hour of treatment with lipopolysaccharides (LPS) (Sigma, #L6529). After the treatment with the compound, the cells were treated with LPS so that the final concentration was 500 ng/mL. Then, a cell culture broth was collected after 24 hours of culture, and levels of cytokine IL-6 (R&D Systems, #D6050) and TNF-α (R&D Systems, #DTA00D) comprised in the culture broth were measured using respective ELISA kits. After an experiment was performed according to the manufacturer's guidelines, cell analysis was performed by measuring the optical density at 450 nm using a microplate reader.
A general note: In an ELISA, binding on a coated surface is turned into a signal by an enzyme label.

Chain of LRRK2 (G2019S) (Q5S007 970-2527 G2019S limits assumed): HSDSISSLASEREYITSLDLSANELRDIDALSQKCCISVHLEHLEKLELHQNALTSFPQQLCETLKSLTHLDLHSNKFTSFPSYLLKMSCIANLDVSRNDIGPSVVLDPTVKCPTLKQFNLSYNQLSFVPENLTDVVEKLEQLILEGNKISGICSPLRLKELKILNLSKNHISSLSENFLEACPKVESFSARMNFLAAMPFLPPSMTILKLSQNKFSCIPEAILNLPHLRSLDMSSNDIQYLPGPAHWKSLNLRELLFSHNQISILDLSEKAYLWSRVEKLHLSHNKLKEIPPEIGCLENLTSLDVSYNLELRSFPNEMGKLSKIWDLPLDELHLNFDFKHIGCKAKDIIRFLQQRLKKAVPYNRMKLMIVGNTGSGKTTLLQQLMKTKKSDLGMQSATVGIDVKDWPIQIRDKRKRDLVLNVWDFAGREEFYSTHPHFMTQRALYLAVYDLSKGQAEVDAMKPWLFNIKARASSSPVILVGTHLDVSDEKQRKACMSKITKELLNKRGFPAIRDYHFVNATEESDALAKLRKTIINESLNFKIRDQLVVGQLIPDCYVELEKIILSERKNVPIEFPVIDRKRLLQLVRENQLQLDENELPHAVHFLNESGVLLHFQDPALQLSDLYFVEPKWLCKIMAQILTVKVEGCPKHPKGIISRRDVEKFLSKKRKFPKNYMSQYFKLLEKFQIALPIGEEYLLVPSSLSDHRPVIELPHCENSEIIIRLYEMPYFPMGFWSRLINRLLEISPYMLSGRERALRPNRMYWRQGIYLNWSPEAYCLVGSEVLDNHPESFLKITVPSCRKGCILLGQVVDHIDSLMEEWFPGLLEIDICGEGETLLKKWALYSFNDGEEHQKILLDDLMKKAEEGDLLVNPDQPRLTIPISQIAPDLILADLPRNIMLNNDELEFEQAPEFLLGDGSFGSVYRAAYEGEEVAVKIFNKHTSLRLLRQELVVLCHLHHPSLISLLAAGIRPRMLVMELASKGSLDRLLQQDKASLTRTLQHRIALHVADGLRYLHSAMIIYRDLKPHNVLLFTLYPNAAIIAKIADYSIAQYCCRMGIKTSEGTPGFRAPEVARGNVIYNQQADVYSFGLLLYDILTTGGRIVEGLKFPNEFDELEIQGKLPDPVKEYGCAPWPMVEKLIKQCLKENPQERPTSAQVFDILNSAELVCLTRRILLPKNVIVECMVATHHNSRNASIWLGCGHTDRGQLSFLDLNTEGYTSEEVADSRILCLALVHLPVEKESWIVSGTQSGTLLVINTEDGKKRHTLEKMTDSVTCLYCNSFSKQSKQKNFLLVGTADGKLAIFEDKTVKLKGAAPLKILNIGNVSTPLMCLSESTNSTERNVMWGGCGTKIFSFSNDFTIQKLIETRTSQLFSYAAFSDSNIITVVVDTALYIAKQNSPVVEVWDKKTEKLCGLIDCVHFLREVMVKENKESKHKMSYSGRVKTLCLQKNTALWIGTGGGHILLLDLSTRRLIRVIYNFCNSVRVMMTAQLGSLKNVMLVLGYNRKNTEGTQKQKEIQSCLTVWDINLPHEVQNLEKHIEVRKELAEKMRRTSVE

In assay [1], `N#Cc1c[nH]c2nc(Nc3ccc(C(=O)N4CCOCC4)c4c3OCCO4)nc(NCC3CCCC3)c12` [Example 133, 4-((cyclopentylmethyl)amino)-2-((8-(morpholine-4-carbonyl)-2,3-dihydrobenzo[b][1,4]dioxin-5-yl)amino)-7H-pyrrolo[2,3-d]pyrimidine-5-carbonitrile] yielded a GI50 of 101 to 300 nM.
Take `CCCNc1nc(Nc2ccc(C(=O)N3CCC(N4CCOCC4)CC3)c3c2OCCO3)nc2[nH]cc(C#N)c12` [Example 138, 2-((8-(4-morpholinopiperidine-1-carbonyl)-2,3-dihydrobenzo[b][1,4]dioxin-5-yl)amino)-4-(propylamino)-7H-pyrrolo[2,3-d]pyrimidine-5-carbonitrile]: the IC50 in assay [2] is less than 0.1 µM.
On to `CCNc1nc(Nc2ccc(S(=O)(=O)N3CCC(N4CCOCC4)CC3)cc2OC)nc2[nH]cc(C(F)(F)F)c12` [Example 158, N^4-ethyl-N^2-(2-methoxy-4-((4-morpholinopiperidin-1-yl)sulfonyl)phenyl)-5-(trifluoromethyl)-7H-pyrrolo[2,3-d]pyrimidine-2,4-diamine 2,2,2-trifluoroacetate], for which the IC50 in assay [2] was less than 0.1 µM. In assay [1], this molecule had a GI50 of 101 to 300 nM. In assay [3], the inhibition at 1 µM was 66.8%, the inhibition at 0.25 µM came out at 25.4% and the inhibition at 0.5 µM was 59.7%.
The molecule `CCCNc1nc(Nc2ccc(S(=O)(=O)N3CCC(N4CCOCC4)CC3)cc2OC)nc2[nH]cc(C(F)(F)F)c12` [Example 161, N^2-(2-methoxy-4-((4-morpholinopiperidin-1-yl)sulfonyl)phenyl)-N^4-propyl-5-(trifluoromethyl)-7H-pyrrolo[2,3-d]pyrimidine-2,4-diamine] came in with an IC50 in assay [2] of 0.101 to 0.3 µM. The GI50 in assay [1] lay in the range of 301 to 1000 nM. Further, in assay [3], the inhibition at 1 µM worked out at 50%, the inhibition at 0.25 µM was 0% and the inhibition at 0.5 µM came out at 27.9%.
For the molecule `CNc1nc(Nc2ccc(C(=O)N3CCC(N4CCOCC4)CC3)c3c2OCC3)nc2[nH]cc(C(F)(F)F)c12` [Example 217, (7-((4-(methylamino)-5-(trifluoromethyl)-7H-pyrrolo[2,3-d]pyrimidin-2-yl)amino)-2,3-dihydrobenzofuran-4-yl)(4-morpholinopiperidin-1-yl)methanone], the IC50 in assay [2] was less than 0.1 µM. In assay [3], the inhibition at 1 µM is 77.9%, the inhibition at 0.25 µM came out at 32% and the inhibition at 0.5 µM stood at 63.7%. The inhibition at 0.5 µM in assay [4] worked out at 23.4%.
On to `COc1cc(S(=O)(=O)N2CCOCC2)ccc1Nc1nc(C2CC2)c2c(C#N)c[nH]c2n1` [Example 223, 4-cyclopropyl-2-((2-methoxy-4-(morpholinosulfonyl)phenyl)amino)-7H-pyrrolo[2,3-d]pyrimidine-5-carbonitrile], for which the GI50 in assay [1] is 301 to 1000 nM.
Regarding `COc1cc(S(=O)(=O)N2CCC(N3CCOCC3)CC2)ccc1Nc1nc(C2CC2)c2c(C#N)c[nH]c2n1` [Example 224, 4-cyclopropyl-2-((2-methoxy-4-((4-morpholinopiperidin-1-yl)sulfonyl)phenyl)amino)-7H-pyrrolo[2,3-d]pyrimidine-5-carbonitrile], in assay [3], the inhibition at 1 µM worked out at 39.9%, the inhibition at 0.25 µM came to 3.6% and the inhibition at 0.5 µM was 15.6%.
For the molecule `COc1cc(S(=O)(=O)N2CCC(N3CCOCC3)CC2)ccc1Nc1nc(C2CC2)c2c(C(F)(F)F)c[nH]c2n1` [Example 226], the concentration for half-maximal inhibition (IC50) in assay [2] is 0.101 to 0.3 µM. In assay [1], this molecule showed a GI50 of 301 to 1000 nM.
In assay [2], `O=C(c1ccc(Nc2nc(C3CC3)c3c(C(F)(F)F)c[nH]c3n2)c2c1OCCO2)N1CCC(N2CCOCC2)CC1` [Example 228, (8-((4-cyclopropyl-5-(trifluoromethyl)-7H-pyrrolo[2,3-d]pyrimidin-2-yl)amino)-2,3-dihydrobenzo[b][1,4]dioxin-5-yl)(4-morpholinopiperidin-1-yl)methanone] yielded an IC50 of less than 0.1 µM. Moreover, in assay [3], the inhibition at 1 µM was found to be 49%, the inhibition at 0.25 µM was 9.3% and the inhibition at 0.5 µM worked out at 24.7%.
`CNc1nc(Nc2cc(F)c(S(=O)(=O)N3CCC(N4CCOCC4)CC3)cc2OC)nc2[nH]cc(C(F)(F)F)c12` [Example 231, N^2-(5-fluoro-2-methoxy-4-((4-morpholinopiperidin-1-yl)sulfonyl)phenyl)-N^4-methyl-5-(trifluoromethyl)-7H-pyrrolo[2,3-d]pyrimidine-2,4-diamine] came in with an IC50 in assay [2] of less than 0.1 µM. The GI50 in assay [1] is 101 to 300 nM.
The matching figures for `CCNc1nc(Nc2cc(F)c(S(=O)(=O)N3CCC(N4CCOCC4)CC3)cc2OC)nc2[nH]cc(C(F)(F)F)c12` [Example 232, N^4-ethyl-N^2-(5-fluoro-2-methoxy-4-((4-morpholinopiperidin-1-yl)sulfonyl)phenyl)-5-(trifluoromethyl)-7H-pyrrolo[2,3-d]pyrimidine-2,4-diamine]: less than 0.1 µM and 301 to 1000 nM.
In turn, `CNc1nc(Nc2ccc(C(=O)N3CCC(N4CCOCC4)CC3)c3c2OCCO3)nc2[nH]cc(C(F)(F)F)c12` [Example 238, (8-((4-(methylamino)-5-(trifluoromethyl)-7H-pyrrolo[2,3-d]pyrimidin-2-yl)amino)-2,3-dihydrobenzo[b][1,4]dioxin-5-yl)(4-morpholinopiperidin-1-yl)methanone] had an IC50 in assay [2] of less than 0.1 µM.
For `C=CCNc1nc(Nc2ccc(S(=O)(=O)N3CCC(N4CCOCC4)CC3)cc2OC)nc2[nH]cc(C#N)c12` [Example 361, 4-(allylamino)-2-((2-methoxy-4-((4-morpholino-piperidin-1-yl)sulfonyl)phenyl)amino)-7H-pyrrolo[2,3-d]pyrimidine-5-carbonitrile], the IC50 in assay [2] was less than 0.1 µM. Further, the results for the inhibition at 0.5 µM in assay [5] and in assay [4] were 9.3% and 21.7%, respectively.
As for `COCCNc1nc(Nc2ccc(C(=O)N3CCN(C4COC4)CC3)c3c2OCCO3)nc2[nH]cc(C(F)(F)F)c12` [Example 403, (8-((4-((2-methoxyethyl)-amino)-5-(trifluoromethyl)-7H-pyrrolo[2,3-d]pyrimidin-2-yl)amino)-2,3-dihydrobenzo[b] [1,4]dioxin-5-yl) (4-(oxetan-3-yl)piperazin-1-yl)methanone], the inhibition at 0.5 µM in assay [5] turned out to be 40.4%; in assay [4], 30.1%.
Take `O=C(c1ccc(Nc2nc(NC3CC3)c3c(C(F)(F)F)c[nH]c3n2)c2c1OCCO2)N1CCN(C2COC2)CC1` [Example 405, (8-((4-(cyclo-propylamino)-5-(trifluoromethyl)-7H-pyrrolo[2,3-d]pyrimidin-2-yl)amino)-2,3-dihydrobenzo[b] [1,4]dioxin-5-yl) (4-(oxetan-3-yl)piperazin-1-yl)methanone]: in assay [2], the IC50 is less than 0.1 µM. In assay [3], the inhibition at 1 µM was 70.7%, the inhibition at 0.25 µM came out at 17.5% and the inhibition at 0.5 µM is 44%.
As for `CNc1nc(Nc2ccc(P3(=O)CCN(C4CC4)CC3)cc2OC)nc2[nH]cc(C(F)(F)F)c12` [Example 411, 1-cyclopropyl-4-(3-methoxy-4-((4-(methylamino)-5-(trifluoromethyl)-7H-pyrrolo[2,3-d]pyrimidin-2-yl)amino)phenyl)-1,4-azaphosphinane-4-oxide], in assay [3], the inhibition at 1 µM is 70.8%, the inhibition at 0.25 µM is 28.5% and the inhibition at 0.5 µM came to 48.9%.
In assay [2], `COc1cc(P2(=O)CCN(C3CC3)CC2)ccc1Nc1nc(NC2CCCC2)c2c(C(F)(F)F)c[nH]c2n1` [Example 413] had an IC50 of 0.301 to 1 µM.
With `O=C(c1ccc(Nc2nc(NC3CCCCC3)c3c(C(F)(F)F)c[nH]c3n2)c2c1OCCO2)N1CCN(C2COC2)CC1` [Example 415, (8-((4-(cyclo-hexylamino)-5-(trifluoromethyl)-7H-pyrrolo[2,3-d]pyrimidin-2-yl)amino)-2,3-dihydrobenzo[b] [1,4]dioxin-5-yl) (4-(oxetan-3-yl)piperazin-1-yl)methanone], the half-inhibitory concentration (IC50) in assay [2] was in the range of 0.301 to 1 µM.
